Laboratory results published in patent US10344060B2 (priority 2013, dated 2019).

Columns and labels:
Experiment in all cases: cell-based
[1] = biological target: hNav1.7 (Homo sapiens, UniProt Q15858); settings: read-out: IC50 (μM) Nav1.7
[2] = biological target: hNav1.5 (Homo sapiens, UniProt Q14524); settings: IonWorks Quattro; Table 6; read-out: IC50 (μM) Nav1.5
[3] = biological target: hNav1.4 (Homo sapiens, UniProt P35499); format: cell-based; settings: Table 6; for IC50: IonWorks Quattro, read-out: IC50 (μM) Nav1.4; for Nav1.4/Nav1.7: ratio of IonWorks Quattro IC50 values
Chain of hNav1.4 (P35499 whole entry): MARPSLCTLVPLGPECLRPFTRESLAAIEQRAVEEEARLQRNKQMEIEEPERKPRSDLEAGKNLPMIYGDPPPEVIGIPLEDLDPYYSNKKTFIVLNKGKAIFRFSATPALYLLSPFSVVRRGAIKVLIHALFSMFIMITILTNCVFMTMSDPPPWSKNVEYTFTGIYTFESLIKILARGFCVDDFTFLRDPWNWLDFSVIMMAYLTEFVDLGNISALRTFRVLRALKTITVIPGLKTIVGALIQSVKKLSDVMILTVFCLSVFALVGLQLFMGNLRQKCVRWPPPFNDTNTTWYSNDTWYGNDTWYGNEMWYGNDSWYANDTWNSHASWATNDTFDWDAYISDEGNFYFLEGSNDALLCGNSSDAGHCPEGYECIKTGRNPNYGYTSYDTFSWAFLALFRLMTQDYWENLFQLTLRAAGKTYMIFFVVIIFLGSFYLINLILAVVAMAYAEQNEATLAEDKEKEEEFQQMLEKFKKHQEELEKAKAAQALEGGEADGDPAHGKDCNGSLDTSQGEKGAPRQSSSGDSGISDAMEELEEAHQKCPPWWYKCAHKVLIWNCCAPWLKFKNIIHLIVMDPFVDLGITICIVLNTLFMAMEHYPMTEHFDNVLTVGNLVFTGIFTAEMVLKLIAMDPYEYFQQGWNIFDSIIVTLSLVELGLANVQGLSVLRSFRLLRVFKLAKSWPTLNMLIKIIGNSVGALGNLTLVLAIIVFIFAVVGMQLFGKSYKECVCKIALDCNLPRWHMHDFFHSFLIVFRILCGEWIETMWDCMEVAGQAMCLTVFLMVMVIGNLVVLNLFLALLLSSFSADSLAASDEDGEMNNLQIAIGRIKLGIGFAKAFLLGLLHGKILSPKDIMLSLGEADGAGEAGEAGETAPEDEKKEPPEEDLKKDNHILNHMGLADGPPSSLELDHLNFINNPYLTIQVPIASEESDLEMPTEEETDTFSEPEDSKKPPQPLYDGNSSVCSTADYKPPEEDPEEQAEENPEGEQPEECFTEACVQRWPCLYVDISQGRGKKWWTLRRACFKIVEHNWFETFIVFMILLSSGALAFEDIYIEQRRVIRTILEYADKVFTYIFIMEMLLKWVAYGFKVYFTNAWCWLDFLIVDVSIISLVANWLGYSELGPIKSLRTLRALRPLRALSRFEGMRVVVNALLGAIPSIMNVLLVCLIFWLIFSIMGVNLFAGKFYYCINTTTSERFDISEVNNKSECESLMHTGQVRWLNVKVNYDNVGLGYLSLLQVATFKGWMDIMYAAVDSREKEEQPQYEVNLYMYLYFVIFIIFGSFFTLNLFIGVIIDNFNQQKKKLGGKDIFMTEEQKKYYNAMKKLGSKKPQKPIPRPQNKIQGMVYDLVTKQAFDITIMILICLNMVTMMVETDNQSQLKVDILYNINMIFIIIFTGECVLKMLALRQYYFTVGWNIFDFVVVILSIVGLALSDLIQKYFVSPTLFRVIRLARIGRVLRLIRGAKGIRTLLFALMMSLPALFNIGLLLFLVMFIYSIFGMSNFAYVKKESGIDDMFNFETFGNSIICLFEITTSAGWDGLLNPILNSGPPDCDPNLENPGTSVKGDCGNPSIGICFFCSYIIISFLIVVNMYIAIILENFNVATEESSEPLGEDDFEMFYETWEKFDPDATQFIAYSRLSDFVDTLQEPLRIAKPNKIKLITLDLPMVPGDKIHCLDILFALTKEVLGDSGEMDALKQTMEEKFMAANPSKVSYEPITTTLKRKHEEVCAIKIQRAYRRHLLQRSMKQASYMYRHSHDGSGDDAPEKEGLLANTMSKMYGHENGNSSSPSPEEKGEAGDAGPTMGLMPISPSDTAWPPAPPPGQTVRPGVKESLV

[4] = biological target: hNav1.3 (Homo sapiens, UniProt Q9NY46); settings: IonWorks Quattro; Table 6; read-out: IC50 (μM) Nav1.3
Chain of hNav1.3 (Q9NY46 whole entry): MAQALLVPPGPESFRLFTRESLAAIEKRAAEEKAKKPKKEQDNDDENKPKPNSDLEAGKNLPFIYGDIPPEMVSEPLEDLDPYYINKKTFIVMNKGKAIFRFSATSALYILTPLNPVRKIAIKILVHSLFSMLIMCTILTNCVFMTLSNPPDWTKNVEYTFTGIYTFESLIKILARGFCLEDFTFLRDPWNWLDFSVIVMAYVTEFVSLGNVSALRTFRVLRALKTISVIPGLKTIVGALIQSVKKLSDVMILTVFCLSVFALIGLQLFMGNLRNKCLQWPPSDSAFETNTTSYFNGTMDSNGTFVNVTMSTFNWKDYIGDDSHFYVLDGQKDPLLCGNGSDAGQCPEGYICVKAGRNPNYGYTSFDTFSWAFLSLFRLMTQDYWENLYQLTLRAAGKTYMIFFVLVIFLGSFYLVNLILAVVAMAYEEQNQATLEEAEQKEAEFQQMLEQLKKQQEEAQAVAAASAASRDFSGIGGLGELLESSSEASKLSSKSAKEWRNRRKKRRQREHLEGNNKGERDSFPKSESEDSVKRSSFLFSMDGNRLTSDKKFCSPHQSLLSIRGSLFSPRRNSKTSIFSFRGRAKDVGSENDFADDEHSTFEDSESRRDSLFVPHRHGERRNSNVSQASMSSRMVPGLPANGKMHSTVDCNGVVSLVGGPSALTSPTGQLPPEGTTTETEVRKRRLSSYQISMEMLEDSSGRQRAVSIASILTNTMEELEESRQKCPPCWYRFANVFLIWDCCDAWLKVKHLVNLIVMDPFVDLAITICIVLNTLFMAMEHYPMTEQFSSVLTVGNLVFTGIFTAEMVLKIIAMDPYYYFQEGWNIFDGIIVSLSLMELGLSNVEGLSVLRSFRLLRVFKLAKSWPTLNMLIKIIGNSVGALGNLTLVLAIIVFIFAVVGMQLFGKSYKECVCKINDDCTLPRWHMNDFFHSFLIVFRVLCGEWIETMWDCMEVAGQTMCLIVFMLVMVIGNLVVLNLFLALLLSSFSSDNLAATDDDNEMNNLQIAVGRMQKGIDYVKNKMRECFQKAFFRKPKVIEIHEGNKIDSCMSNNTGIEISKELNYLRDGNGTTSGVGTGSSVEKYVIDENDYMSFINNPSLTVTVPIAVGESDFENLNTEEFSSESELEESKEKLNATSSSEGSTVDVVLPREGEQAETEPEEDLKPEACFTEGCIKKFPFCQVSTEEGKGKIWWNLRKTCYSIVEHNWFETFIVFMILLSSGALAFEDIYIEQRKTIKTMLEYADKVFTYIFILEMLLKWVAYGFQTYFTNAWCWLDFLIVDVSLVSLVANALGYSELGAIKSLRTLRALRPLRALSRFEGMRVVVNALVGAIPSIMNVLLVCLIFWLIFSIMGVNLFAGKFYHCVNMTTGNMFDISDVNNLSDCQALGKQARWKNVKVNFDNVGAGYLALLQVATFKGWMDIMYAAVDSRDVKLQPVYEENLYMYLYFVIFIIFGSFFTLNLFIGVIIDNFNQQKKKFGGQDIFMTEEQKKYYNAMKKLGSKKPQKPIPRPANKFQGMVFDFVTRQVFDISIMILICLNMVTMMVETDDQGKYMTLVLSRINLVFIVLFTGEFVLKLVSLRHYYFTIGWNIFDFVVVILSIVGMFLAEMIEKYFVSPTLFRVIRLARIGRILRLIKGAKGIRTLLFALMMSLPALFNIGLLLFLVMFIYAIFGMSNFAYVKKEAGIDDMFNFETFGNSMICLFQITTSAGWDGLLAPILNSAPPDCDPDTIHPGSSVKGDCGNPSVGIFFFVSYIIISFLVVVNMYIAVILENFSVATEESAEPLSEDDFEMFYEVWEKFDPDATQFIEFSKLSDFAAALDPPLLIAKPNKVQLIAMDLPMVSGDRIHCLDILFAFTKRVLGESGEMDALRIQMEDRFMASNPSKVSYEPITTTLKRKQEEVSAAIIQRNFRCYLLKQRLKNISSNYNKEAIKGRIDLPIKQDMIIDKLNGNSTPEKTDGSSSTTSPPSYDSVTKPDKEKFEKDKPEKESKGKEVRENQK

CC[C@H](C)[C@H](NC(=O)[C@@H](NC(=O)[C@H](CCCCN)NC(=O)[C@H](CCCNC(=N)N)NC(=O)[C@@H]1CSSC[C@@H]2NC(=O)[C@H](C)NC(=O)[C@H](CCCNC(=N)N)NC(=O)[C@H](CCCCN)NC(=O)[C@H](CO)NC(=O)[C@H](CC(=O)O)NC(=O)[C@@H]3CSSC[C@H](NC(=O)[C@H](CCCNC(=N)N)NC(=O)[C@H](CC(C)C)NC(=O)CNC(=O)[C@H](CCC(=O)O)NC(=O)[C@H](CSSC[C@H](NC(=O)[C@@H](N)Cc4ccc(O)cc4)C(=O)N[C@@H](CCC(N)=O)C(=O)N[C@@H](CCCCN)C(=O)N[C@@H](Cc4c[nH]c5ccccc45)C(=O)N[C@@H](CCSC)C(=O)N[C@@H](Cc4c[nH]c5ccccc45)C(=O)N[C@@H]([C@@H](C)O)C(=O)N3)NC2=O)C(=O)N[C@@H](CCCCN)C(=O)N[C@@H](CCCCN)C(=O)N[C@@H](Cc2c[nH]c3ccccc23)C(=O)N1)[C@@H](C)CC)C(N)=O [compound 85]
IC50 [1]: 0.24 µM | IC50 [2]: 4.1 µM | IC50 [3]: 0.29 µM | Nav1.4/Nav1.7 [3]: 1 | IC50 [4]: 0.14 µM

CC[C@H](C)[C@H](NC(=O)[C@H](CCCCN)NC(=O)[C@H](CCCCN)NC(=O)[C@H](CCCNC(=N)N)NC(=O)[C@@H]1CSSC[C@@H]2NC(=O)[C@H](C)NC(=O)[C@H](CCCNC(=N)N)NC(=O)[C@H](CCCCN)NC(=O)[C@H](CO)NC(=O)[C@H](CC(=O)O)NC(=O)[C@@H]3CSSC[C@H](NC(=O)[C@H](CCCNC(=N)N)NC(=O)[C@H](CC(C)C)NC(=O)CNC(=O)[C@H](CCC(=O)O)NC(=O)[C@H](CSSC[C@H](NC(=O)[C@@H](N)Cc4ccc(O)cc4)C(=O)N[C@@H](CCC(N)=O)C(=O)N[C@@H](CCCCN)C(=O)N[C@@H](Cc4c[nH]c5ccccc45)C(=O)N[C@@H](CCSC)C(=O)N[C@@H](Cc4c[nH]c5ccccc45)C(=O)N[C@@H]([C@@H](C)O)C(=O)N3)NC2=O)C(=O)N[C@@H](CCCCN)C(=O)N[C@@H](CC(C)C)C(=O)N[C@@H](Cc2c[nH]c3ccccc23)C(=O)N1)C(N)=O [compound 88]
IC50 [1]: 0.014 µM | IC50 [2]: 1.5 µM | IC50 [3]: 0.11 µM | Nav1.4/Nav1.7 [3]: 8 | IC50 [4]: 0.05 µM

CC[C@H](C)[C@H](NC(=O)[C@H](CCCCN)NC(=O)[C@H](CCCNC(=N)N)NC(=O)[C@@H]1CSSC[C@@H]2NC(=O)[C@H](C)NC(=O)[C@H](CCCNC(=N)N)NC(=O)[C@H](CCCCN)NC(=O)[C@H](CO)NC(=O)[C@H](CC(=O)O)NC(=O)[C@@H]3CSSC[C@H](NC(=O)[C@H](CCCNC(=N)N)NC(=O)[C@H](CC(C)C)NC(=O)CNC(=O)[C@H](CCC(=O)O)NC(=O)[C@H](CSSC[C@H](NC(=O)[C@@H](N)Cc4ccc(O)cc4)C(=O)N[C@@H](CCC(N)=O)C(=O)N[C@@H](CCCCN)C(=O)N[C@@H](Cc4c[nH]c5ccccc45)C(=O)N[C@@H](CCSC)C(=O)N[C@@H](Cc4c[nH]c5ccccc45)C(=O)N[C@@H]([C@@H](C)O)C(=O)N3)NC2=O)C(=O)N[C@@H](CCCCN)C(=O)N[C@@H](CC(C)C)C(=O)N[C@@H](Cc2c[nH]c3ccccc23)C(=O)N1)C(=O)N[C@@H](CCCCN)C(N)=O [compound 89]
IC50 [1]: 0.11 µM | IC50 [2]: > 5 µM | IC50 [3]: 1.3 µM | Nav1.4/Nav1.7 [3]: 11 | IC50 [4]: 2.4 µM

CC[C@H](C)[C@H](NC(=O)[C@@H](NC(=O)[C@H](CCCCN)NC(=O)[C@H](CCCNC(=N)N)NC(=O)[C@@H]1CSSC[C@@H]2NC(=O)[C@H](C)NC(=O)[C@H](CCCNC(=N)N)NC(=O)[C@H](CCCCN)NC(=O)[C@H](CO)NC(=O)[C@H](CC(=O)O)NC(=O)[C@@H]3CSSC[C@H](NC(=O)[C@H](CCCNC(=N)N)NC(=O)[C@H](CC(C)C)NC(=O)CNC(=O)[C@H](CCC(=O)O)NC(=O)[C@H](CSSC[C@H](NC(=O)[C@@H](N)CCCNC(=N)N)C(=O)N[C@@H](CCC(N)=O)C(=O)N[C@@H](CCCCN)C(=O)N[C@@H](Cc4c[nH]c5ccccc45)C(=O)N[C@@H](CCSC)C(=O)N[C@@H](Cc4c[nH]c5ccccc45)C(=O)N[C@@H]([C@@H](C)O)C(=O)N3)NC2=O)C(=O)N[C@@H](CCCCN)C(=O)N[C@@H](CC(C)C)C(=O)N[C@@H](Cc2c[nH]c3ccccc23)C(=O)N1)[C@@H](C)CC)C(N)=O [compound 90]
IC50 [1]: 0.005 µM | IC50 [2]: 1.8 µM | IC50 [3]: 0.12 µM | Nav1.4/Nav1.7 [3]: 24 | IC50 [4]: 0.04 µM

CC[C@H](C)[C@H](NC(=O)[C@@H](NC(=O)[C@H](CCCCN)NC(=O)[C@H](CCCNC(=N)N)NC(=O)[C@@H]1CSSC[C@@H]2NC(=O)[C@H](C)NC(=O)[C@H](CCCNC(=N)N)NC(=O)[C@H](CCCCN)NC(=O)[C@H](CO)NC(=O)[C@H](CC(=O)O)NC(=O)[C@@H]3CSSC[C@H](NC(=O)[C@H](CCCNC(=N)N)NC(=O)[C@H](CC(C)C)NC(=O)CNC(=O)[C@H](CCC(=O)O)NC(=O)[C@H](CSSC[C@H](NC(=O)[C@@H](N)Cc4ccc(O)cc4)C(=O)N[C@@H](CCCNC(=N)N)C(=O)N[C@@H](CCCCN)C(=O)N[C@@H](Cc4c[nH]c5ccccc45)C(=O)N[C@@H](CCSC)C(=O)N[C@@H](Cc4c[nH]c5ccccc45)C(=O)N[C@@H]([C@@H](C)O)C(=O)N3)NC2=O)C(=O)N[C@@H](CCCCN)C(=O)N[C@@H](CC(C)C)C(=O)N[C@@H](Cc2c[nH]c3ccccc23)C(=O)N1)[C@@H](C)CC)C(N)=O [compound 91]
IC50 [1]: 0.025 µM | IC50 [2]: 3.2 µM | IC50 [3]: 0.14 µM | Nav1.4/Nav1.7 [3]: 6 | IC50 [4]: 0.06 µM

CC[C@H](C)[C@H](NC(=O)[C@@H](NC(=O)[C@H](CCCCN)NC(=O)[C@H](CCCNC(=N)N)NC(=O)[C@@H]1CSSC[C@@H]2NC(=O)[C@H](C)NC(=O)[C@H](CCCNC(=N)N)NC(=O)[C@H](CCCCN)NC(=O)[C@H](CO)NC(=O)[C@H](CC(=O)O)NC(=O)[C@@H]3CSSC[C@H](NC(=O)[C@H](CCCNC(=N)N)NC(=O)[C@H](CC(C)C)NC(=O)CNC(=O)[C@H](CCC(=O)O)NC(=O)[C@H](CSSC[C@H](NC(=O)[C@@H](N)Cc4ccc(O)cc4)C(=O)N[C@@H](CCC(N)=O)C(=O)N[C@@H](CCCNC(=N)N)C(=O)N[C@@H](Cc4c[nH]c5ccccc45)C(=O)N[C@@H](CCSC)C(=O)N[C@@H](Cc4c[nH]c5ccccc45)C(=O)N[C@@H]([C@@H](C)O)C(=O)N3)NC2=O)C(=O)N[C@@H](CCCCN)C(=O)N[C@@H](CC(C)C)C(=O)N[C@@H](Cc2c[nH]c3ccccc23)C(=O)N1)[C@@H](C)CC)C(N)=O [compound 92]
IC50 [1]: 0.014 µM | IC50 [2]: 2 µM | IC50 [3]: 0.16 µM | Nav1.4/Nav1.7 [3]: 11 | IC50 [4]: 0.07 µM

CC[C@H](C)[C@H](NC(=O)[C@@H](NC(=O)[C@H](CCCCN)NC(=O)[C@H](CCCNC(=N)N)NC(=O)[C@@H]1CSSC[C@@H]2NC(=O)[C@H](C)NC(=O)[C@H](CCCNC(=N)N)NC(=O)[C@H](CCCCN)NC(=O)[C@H](CO)NC(=O)[C@H](CC(=O)O)NC(=O)[C@@H]3CSSC[C@H](NC(=O)[C@H](CCCNC(=N)N)NC(=O)[C@H](CC(C)C)NC(=O)CNC(=O)[C@H](CCC(=O)O)NC(=O)[C@H](CSSC[C@H](NC(=O)[C@@H](N)Cc4ccc(O)cc4)C(=O)N[C@@H](CCC(N)=O)C(=O)N[C@@H](CCCCN)C(=O)N[C@@H](Cc4c[nH]c5ccccc45)C(=O)N[C@@H](CCSC)C(=O)N[C@@H](CCCNC(=N)N)C(=O)N[C@@H]([C@@H](C)O)C(=O)N3)NC2=O)C(=O)N[C@@H](CCCCN)C(=O)N[C@@H](CC(C)C)C(=O)N[C@@H](Cc2c[nH]c3ccccc23)C(=O)N1)[C@@H](C)CC)C(N)=O [compound 95]
IC50 [1]: 0.053 µM | IC50 [2]: > 5 µM | IC50 [3]: 0.4 µM | Nav1.4/Nav1.7 [3]: 8 | IC50 [4]: 0.08 µM

CC[C@H](C)[C@H](NC(=O)[C@@H](NC(=O)[C@H](CCCCN)NC(=O)[C@H](CCCNC(=N)N)NC(=O)[C@@H]1CSSC[C@@H]2NC(=O)[C@H](C)NC(=O)[C@H](CCCNC(=N)N)NC(=O)[C@H](CCCCN)NC(=O)[C@H](CO)NC(=O)[C@H](CC(=O)O)NC(=O)[C@@H]3CSSC[C@H](NC(=O)[C@H](CCCNC(=N)N)NC(=O)[C@H](CC(C)C)NC(=O)CNC(=O)[C@H](CCC(=O)O)NC(=O)[C@H](CSSC[C@H](NC(=O)[C@@H](N)Cc4ccc(O)cc4)C(=O)N[C@@H](CCC(N)=O)C(=O)N[C@@H](CCCCN)C(=O)N[C@@H](Cc4c[nH]c5ccccc45)C(=O)N[C@@H](CCSC)C(=O)N[C@@H](Cc4c[nH]c5ccccc45)C(=O)N[C@@H](CCCNC(=N)N)C(=O)N3)NC2=O)C(=O)N[C@@H](CCCCN)C(=O)N[C@@H](CC(C)C)C(=O)N[C@@H](Cc2c[nH]c3ccccc23)C(=O)N1)[C@@H](C)CC)C(N)=O [compound 96]
IC50 [1]: 0.018 µM | IC50 [2]: 1.7 µM | IC50 [3]: 0.14 µM | Nav1.4/Nav1.7 [3]: 7 | IC50 [4]: 0.05 µM

CC[C@H](C)[C@H](NC(=O)[C@@H](NC(=O)[C@H](CCCCN)NC(=O)[C@H](CCCNC(=N)N)NC(=O)[C@@H]1CSSC[C@@H]2NC(=O)[C@H](C)NC(=O)[C@H](CCCNC(=N)N)NC(=O)[C@H](CCCCN)NC(=O)[C@H](CCCNC(=N)N)NC(=O)[C@H](CC(=O)O)NC(=O)[C@@H]3CSSC[C@H](NC(=O)[C@H](CCCNC(=N)N)NC(=O)[C@H](CC(C)C)NC(=O)CNC(=O)[C@H](CCC(=O)O)NC(=O)[C@H](CSSC[C@H](NC(=O)[C@@H](N)Cc4ccc(O)cc4)C(=O)N[C@@H](CCC(N)=O)C(=O)N[C@@H](CCCCN)C(=O)N[C@@H](Cc4c[nH]c5ccccc45)C(=O)N[C@@H](CCSC)C(=O)N[C@@H](Cc4c[nH]c5ccccc45)C(=O)N[C@@H]([C@@H](C)O)C(=O)N3)NC2=O)C(=O)N[C@@H](CCCCN)C(=O)N[C@@H](CC(C)C)C(=O)N[C@@H](Cc2c[nH]c3ccccc23)C(=O)N1)[C@@H](C)CC)C(N)=O [compound 98]
IC50 [1]: 0.007 µM | IC50 [2]: 0.86 µM | IC50 [3]: 0.09 µM | Nav1.4/Nav1.7 [3]: 12 | IC50 [4]: 0.03 µM
